Laboratory results from US20120232070A1, “Use of Indole Derivatives as Nurr-1 Activators for the Application Thereof as a Medicament for the Treatment of Parkinson's Disease” (Laboratoires Fournier SA, priority 2009, published 2012).

Tests used:
[1] = target: hNurr1_RXRαFL (NURR1/RXRα heterodimer) (Homo sapiens, UniProt P19793+P43354); assay: Transactivation assay in Cos-7 cells, NURR-1-Gal4 / RXRα, luciferase reporter; assay type: cell-based; conditions: for Emax: COS-7, read-out: hNurr1_RXRαFL Eff (%), efficacy in % relative to the reference XCT0135908 at 2·10^−5 M (=100%); for EC50: Cos-7 cells, overnight incubation; for hNurr1_RXRαFL Eff (%): efficacy in % relative to the reference XCT0135908 at 2·10^−5 M (=100%)
How it was run: (§1)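 Efficiency is given as a percentage of the induction produced by 2·10^−5 M XCT0135908 (100%), measured from heterodimer baseline. Read-out was luciferase after overnight exposure to compounds (10^−4–3·10^−10 M final) in Cos-7 cells transfected with NURR-1-Gal4, RXRα or RXRγ, and a Gal4 luciferase reporter.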

[2] = target: hNurr1_RXRγFL (NURR1/RXRγ heterodimer) (Homo sapiens, UniProt P43354+P48443); assay: Transactivation assay in Cos-7 cells, NURR-1-Gal4 / RXRγ, luciferase reporter; assay type: cell-based; conditions: for Emax: COS-7, read-out: hNurr1_RXRγFL Eff (%), efficacy in % relative to the reference XCT0135908 at 2·10^−5 M (=100%); for EC50: Cos-7 cells, overnight incubation
How it was run: as §1

[3] = tested on: mice treated with 1-methyl-4-phenyl-1,2,3,6-tetrahydropyridine (MPTP); assay: MPTP mouse model, dopamine in the striatum; assay type: in vivo, male C57BL6/J mice; conditions: oral, twice a day for 11 days; MPTP 25 mg/kg i.p. once a day for 5 days; FIGS. 1 and 2
Procedure: The compounds of examples 32 and 49 were assayed on a model of mice treated with 1-methyl-4-phenyl-1,2,3,6-tetrahydropyridine (MPTP) in order to confirm their potential activities. MPTP is a neurotoxin which causes permanent symptoms of Parkinson's disease by destroying certain neurons in the substantia nigra of the brain. The following procedure was used.
Male C57BL6/J mice aged 10-12 weeks at the start of the studies were distributed in groups of 8 animals. The compounds were administered orally, twice a day for a total of 11 days. Administration began 3 days before the treatment with the MPTP toxin at 25 mg/kg. MPTP was administered once a day by intraperitoneal injection for 5 days. Administration of the assayed compounds was continued for 3 days after the treatment with MPTP. One group of mice received the carrier only (0.5% solution of methylcellulose). The animals were euthanized after the last force-feeding and the striatum was removed. Dopamine was extracted from the striatum and the amount of dopamine (DA) expressed in ng per g of striatum (mean±SEM) was measured by high-performance liquid chromatography (HPLC) with electrochemical detection.

[4] = Plasma and cerebral pharmacokinetic profile after oral administration; assay type: in vivo, male C57B16 mouse; conditions: oral administration 10 mg/kg in the mouse; for Kp: male, C57B16, brain/plasma, read-out: Ratio AUCbrain/AUCplasma
Procedure: A first series of in vivo assays were conducted with some compounds according to the invention, for the purpose of determining their plasma and cerebral pharmacokinetic profile in the male C57B16 mouse and thus verify that the compounds were capable of crossing the blood-brain barrier. The following procedure was used.
Male C57B16 mice (25-30 g) obtained from the Janvier establishment, Le Genest-St-Isle, France were used for this study (12 mice per dose). The animals were fed with standard rodent feed (Purina Mills, St. Louis, Mo.), placed in cages and subjected to light/darkness cycles of 12 h/12 h, the temperature of the room being maintained at 22±2° C. and the humidity at 55±10%. The mice were not fasting before administration. Water was supplied ad libitum throughout the study. The assayed compound was administered orally at 10 mg/kg. For oral administration at 10 mg/kg, the animals were force-fed with 10 mL/kg of a suspension of the assayed compound, prepared in methylcellulose 400 cp 1%. The animals were euthanized by anaesthesia at intervals of 15 min, 30 min, 1 h, 3 h, 6 h and 8 h after force-feeding. At each interval, blood was collected and the brain was removed from each euthanized animal. 1 mL of blood collected in 1.5 mL tubes containing 20 μL of evaporated anticoagulant (solution of sodium heparinate at 1000 IU/mL) was centrifuged at 4500 g for 3 min, obtaining about 400 μL of plasma. The plasma was distributed in 2 aliquots of 200 μL which were stored at −20° C. until extraction by protein precipitation and then analysis by liquid chromatography coupled with tandem mass spectrometry (LC-MS/MS) for quantification of the assayed compound. The brains were immersed in liquid nitrogen directly after removal, then stored at −20° C. for analysis. The brains were then ground in the presence of aqueous/organic solvent mixture to obtain a homogenate. These homogenates were then centrifuged and the assayed compound was extracted from the supernatant by liquid-liquid extraction, then quantified by LC-MS/MS.
The pharmacokinetic parameters were determined according to a non-compartmental approach using Excel. The area under curve (AUC0-t) was determined by the linear trapezoidal method. This method allows estimation of the integral of the concentrations over an interval of time (AUC0-t) and is based on the sum of the areas of the trapeziums delimited by the concentrations measured at the time of sampling (example AUC0-8 h=AUC0-0.25 h+AUC0.25 h-0.5 h+AUC0.5 h-t+AUCt-8 h). The penetration of the compounds through the blood-brain barrier is assessed from the ratio of the AUC measured in the brain to that measured in plasma. As an example, with the compounds of examples 32 and 49, the following results were obtained: […]

Sequence of hNurr1_RXRαFL (NURR1/RXRα heterodimer) (P19793 whole entry, the tested form may be a part): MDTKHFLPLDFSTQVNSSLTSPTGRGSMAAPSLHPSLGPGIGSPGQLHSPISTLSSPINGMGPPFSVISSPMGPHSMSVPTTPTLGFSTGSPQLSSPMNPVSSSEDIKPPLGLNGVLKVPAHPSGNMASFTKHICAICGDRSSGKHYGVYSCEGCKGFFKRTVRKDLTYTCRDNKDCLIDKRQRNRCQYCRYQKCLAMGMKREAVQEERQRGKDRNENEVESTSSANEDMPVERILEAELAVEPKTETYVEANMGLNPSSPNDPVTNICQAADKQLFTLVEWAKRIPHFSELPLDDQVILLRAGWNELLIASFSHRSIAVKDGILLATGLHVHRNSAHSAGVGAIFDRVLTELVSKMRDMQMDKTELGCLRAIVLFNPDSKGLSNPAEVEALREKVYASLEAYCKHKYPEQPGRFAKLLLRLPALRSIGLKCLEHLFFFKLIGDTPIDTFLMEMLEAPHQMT
Sequence of hNurr1_RXRαFL (NURR1/RXRα heterodimer) (P43354 328-598): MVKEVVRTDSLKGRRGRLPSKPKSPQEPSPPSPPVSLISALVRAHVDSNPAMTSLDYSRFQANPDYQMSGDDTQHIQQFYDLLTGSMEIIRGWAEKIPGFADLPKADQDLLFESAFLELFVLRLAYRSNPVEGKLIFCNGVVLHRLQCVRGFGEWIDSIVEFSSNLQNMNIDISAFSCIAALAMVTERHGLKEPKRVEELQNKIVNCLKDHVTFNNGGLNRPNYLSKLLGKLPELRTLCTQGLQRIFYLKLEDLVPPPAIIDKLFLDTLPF
Sequence of hNurr1_RXRγFL (NURR1/RXRγ heterodimer) (P43354 328-598): as above
Sequence of hNurr1_RXRγFL (NURR1/RXRγ heterodimer) (P48443 whole entry, the tested form may be a part): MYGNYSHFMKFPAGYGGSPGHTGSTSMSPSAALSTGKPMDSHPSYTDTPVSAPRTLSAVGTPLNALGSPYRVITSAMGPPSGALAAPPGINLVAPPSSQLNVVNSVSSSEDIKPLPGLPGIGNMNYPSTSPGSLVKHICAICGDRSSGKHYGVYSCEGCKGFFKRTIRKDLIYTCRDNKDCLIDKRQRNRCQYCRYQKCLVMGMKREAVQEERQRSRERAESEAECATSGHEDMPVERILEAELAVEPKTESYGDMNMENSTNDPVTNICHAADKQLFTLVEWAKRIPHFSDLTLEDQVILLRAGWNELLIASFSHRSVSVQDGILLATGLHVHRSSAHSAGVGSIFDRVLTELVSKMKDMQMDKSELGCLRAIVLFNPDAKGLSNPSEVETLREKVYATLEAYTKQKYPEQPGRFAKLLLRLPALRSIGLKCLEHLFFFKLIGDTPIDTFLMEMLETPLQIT

In the case of `CC(C)(C)c1cccc(S(=O)(=O)n2c(Cc3ccc(C(=O)O)cc3F)cc3cc(C(F)(F)F)ccc32)c1` [Example 67, 4-[[1-[[3-(1,1-dimethylethyl)phenyl]sulfonyl]-5-trifluoromethyl-1H-indol-2-yl]methyl]-3-fluorobenzoic acid], the Emax [1] is reported as 73%, the EC50 [1] is reported as 28 nM and the Emax [2] is reported as 75%. The EC50 [2] was 91 nM and the melting point was 177 °C.

In the case of `CC(C)c1cccc(S(=O)(=O)n2c(Cc3ccc(C(=O)O)cc3)cc3cc(C(F)(F)F)ccc32)c1` [Example 32, 4-[[1-[[3-(1-methylethyl)phenyl]sulfonyl]-5-(trifluoromethyl)-1H-indol-2-yl]methyl]benzoic acid], the “effect on the MPTP-induced decrease of dopamine in the striatum” value [3] is reported as “dose-dependent decrease in the action of MPTP”, the EC50 [1] is reported as 103 nM and the “hNurr1_RXRαFL Eff (%)” value [1] is reported as 68%. For the same molecule, the Emax [2] was 62%, the EC50 [2] was 219 nM and the Kp [4] was 0.8. For the same molecule, the AUCbrain [4] was 3763 ng·h/mL.

`CC(C)(C)c1cccc(S(=O)(=O)n2c(Cc3ccc(C(=O)O)c(O)c3)cc3cc(C(F)(F)F)ccc32)c1` [Example 56] gave an Emax [1] of 82%, an EC50 [1] of 1160 nM and an Emax [2] of 51%. The EC50 [2] was 417 nM and the melting point was 129 °C.

With `CC(C)c1ccc(S(=O)(=O)n2c(Cc3ccc(C(=O)O)c(F)c3)cc3cc(C(F)(F)F)ccc32)cc1` [Example 2, 2-fluoro-4-[[1-[[4-(1-methylethyl)phenyl]sulfonyl]-5-(trifluoromethyl)-1H-indol-2-yl]methyl]benzoic acid] the Emax [1] was 63%, the EC50 [1] was 657 nM and the Emax [2] was 43%. The EC50 [2] was 724 nM and the melting point was 197 °C.

With `CC(C)(C)c1cccc(S(=O)(=O)n2c(Cc3ccc(C(=O)O)cc3)cc3cc(C(F)(F)F)ccc32)c1` [Example 49, 4-[[1-[[3-(1,1-dimethylethyl)phenyl]sulfonyl]-5-(trifluoromethyl)-1H-indol-2-yl]methyl]benzoic acid] the “effect on the MPTP-induced decrease of dopamine in the striatum” value [3] was “dose-dependent decrease in the action of MPTP”, the Emax [1] was 73% and the EC50 [1] was 48 nM. The Emax [2] was 71%, the EC50 [2] was 110 nM and the Kp [4] was 0.8. The AUCbrain [4] was 10491 ng·h/mL.

Molecule `Cc1c(Cc2ccc(C(=O)O)s2)n(S(=O)(=O)c2cccc(C(C)(C)C)c2)c2ccc(C(F)(F)F)cc12` [Example 85, 5-[[1-[[3-(1,1-dimethylethyl)-phenyl]sulfonyl]-3-methyl-5-trifluoromethyl-1H-indol-2-yl]methyl]-thiophene-2-carboxylic acid] has an Emax [1] of 87%, an EC50 [1] of 53 nM and an Emax [2] of 73%. It also gave an EC50 [2] of 115 nM and a melting point of 171 °C.

With `CC(C)(C)c1cccc(S(=O)(=O)n2c(Cc3ccc(CNS(C)(=O)=O)cc3)cc3cc(C(F)(F)F)ccc32)c1` [Example 227, N-[4-[[1-[[3-(1,1-dimethylethyl)phenyl]sulfonyl]-5-(trifluoromethyl)-1H-indol-2-yl]methyl]benzyl]-methanesulfonamide] the Emax [1] was 73%, the EC50 [1] was 219 nM and the Emax [2] was 86%. For the same molecule, the EC50 [2] was 316 nM.

With `CC(C)(C)c1cccc(S(=O)(=O)n2c(Cc3ccc(C(=O)O)cc3)cc3cc(C(F)(F)F)c(F)cc32)c1` [Example 117, 4-[[1-[[3-(1,1-dimethylethyl)phenyl]sulfonyl]-5-(trifluoro)-6-fluoro-1H-indol-2-yl]methyl]benzoic acid] the Emax [1] was 84%, the EC50 [1] was 39 nM and the Emax [2] was 73%. The EC50 [2] was 91 nM.

Work on `O=C(O)c1ccc(Cc2cc3cc(Cl)ccc3n2S(=O)(=O)c2cccc(F)c2)cc1` [Example 154, 4-[[1-[3-fluoro-phenylsulfonyl]-5-(chloro)-1H-indol-2-yl]methyl]benzoic acid] yielded an Emax [1] of 68%, an EC50 [1] of 472 nM and an Emax [2] of 66%. The EC50 [2] was 1360 nM.

With `CC(C)c1cccc(S(=O)(=O)n2c(Cc3ccc(C(=O)O)cc3)cc3cc(C(F)(F)F)ccc32)c1` [Example 114, 4-[[1-[[3-(1-methylethyl)phenyl]sulfonyl]-5-(trifluoromethyl)-1H-indol-2-yl]methyl]benzoic acid] the EC50 [1] was 63 nM, the “hNurr1_RXRαFL Eff (%)” value [1] was 109% and the EC50 [2] was 145 nM. The “hNurr1_RXRγFL Eff (%)” value ([2]; efficacy in % relative to the reference XCT0135908 at 2·10^−5 M (=100%)) was 76%.
